# Reference: patent US9611262B2, “Substituted 2-azabicycles and their use as orexin receptor modulators” (JANSSEN PHARMACEUTICA NV, priority 2014, dated 2017)
# Molecular target: human orexin 2 receptor (Homo sapiens (Human), UniProt O43614)
# Assay: Human orexin 2 receptor radioligand binding ([3H]-EMPA competition)
# Details: HEK293 stably expressing human orexin 2 receptor; 2 nM [3H]-EMPA; averages of 2-20 runs; read-out: hOX2 Ki
# Description: The in vitro affinity of the compounds of the invention for the rat/human orexin 1 and human orexin 2 receptors was determined by competitive radioligand binding using [^3H](1-(5-(2-fluoro-phenyl)-2-methyl-thiazol-4-yl)-1-((S)-2-(5-phenyl-(1,3,4)oxadiazol-2-ylmethyl)-pyrrolidin-1-yl)-methanone) (Langmead et al., 2004) and [^3H]EMPA (n-ethyl-2[96-methoxy-pyridin-3-yl)-(toluene-2-sulfonyl)-amino]-N-pyridin-3-ylmethyl acetamide), respectively (Langmead et al., 2004, British Journal of Pharmacology 141:340-346; Malherbe et al., 2004, British Journal of Pharmacology 156:1326-41).
# Data are analyzed using pc-Sandy macro and graphed on Graphpad Prism 5. For analysis, each concentration point is averaged from triplicate values and the averaged values are plotted on Graphpad Prism. The IC50 was determined by applying the following equation (GraphPad Prism 5.0, San Diego) for one site competition where X=log (concentration) and Y=specific binding. Top denotes the total [^3H]— (1-(5-(2-fluoro-phenyl)-2-methyl-thiazol-4-yl)-1-((S)-2-(5-phenyl-(1,3,4)oxadiazol-2-ylmethyl)-pyrrolidin-1-yl)-methanone) binding, bottom denotes the nonspecific [^3H]— (1-(5-(2-fluoro-phenyl)-2-methyl-thiazol-4-yl)-1-((S)-2-(5-phenyl-(1,3,4)oxadiazol-2-ylmethyl)-pyrrolidin-1-yl)-methanone) binding. Graphpad Prism calculates Ki value from IC50 and the pre-determined Kd values for [^3H]— (1-(5-(2-fluoro-phenyl)-2-methyl-thiazol-4-yl)-1-((S)-2-(5-phenyl-(1,3,4)oxadiazol-2-ylmethyl)-pyrrolidin-1-yl)-methanone) and [^3H]-EMPA. The Ki for each compound is then uploaded into 3DX. Each run comprises individual compounds in triplicate. The data in Table 1 and Table 2 represent averages from between 2-20 runs
# Human Orexin 2 Receptor Radioligand Binding Studies
# HEK293 stably expressing human orexin 2 receptor (Genebank accession number NM_001526) were grown to confluency in DMEM (Hyclone, cat # SH30022), 10% FBS, 1× Pen/Strep, 1× NaPyruvate, 10 mM HEPES, 600 μg/ml G418 media on 150 cm^2 tissue culture plates, washed with 5 mM EDTA in PBS (HyClone Dulbecco's Phosphate Buffered Saline 1× with Calcium and Magnesium, Cat # SH30264.01, hereafter referred to simply as PBS) and scraped into 50 ml tubes. After centrifugation (2K×G, 5 min at 4° C.), the supernatant was aspirated and the pellets frozen and stored at −80° C. Cells were resuspended in PBS in the presence of 1 tablet of protease inhibitor cocktail (Roche, Cat. #11836145001) per 50 mL. […] Compounds were solubilized in 100% DMSO (Acros Organics, Cat. #61042-1000) and tested over a range of 7 concentration (from 0.1 nM to 10 μM). The final concentration of DMSO in the reactions is equal to or less than 0.1%. Total and nonspecific binding was determined in the absence and presence of 10 μM almorexant. The total volume of each reaction is 200 μL (20 μL of diluted compounds, 80 μL of [^3H]-EMPA diluted in PBS and 100 μL of the cell suspension). Reactions were run for 60 min at room temperature and terminated by filtration through GF/C filter plates (PerkinElmer, Cat. #6005174) presoaked in 0.3% polyethylenimine using the cell harvester (PerkinElmer Filtermate). The plates were washed 3 times by aspirating 30 ml PBS through the plates. Plates were dried in 55° C. oven for 60 min, scintillation fluid was added, and the radioactivity was counted on a Topcount (Packard).
# Chain of human orexin 2 receptor (O43614 whole entry): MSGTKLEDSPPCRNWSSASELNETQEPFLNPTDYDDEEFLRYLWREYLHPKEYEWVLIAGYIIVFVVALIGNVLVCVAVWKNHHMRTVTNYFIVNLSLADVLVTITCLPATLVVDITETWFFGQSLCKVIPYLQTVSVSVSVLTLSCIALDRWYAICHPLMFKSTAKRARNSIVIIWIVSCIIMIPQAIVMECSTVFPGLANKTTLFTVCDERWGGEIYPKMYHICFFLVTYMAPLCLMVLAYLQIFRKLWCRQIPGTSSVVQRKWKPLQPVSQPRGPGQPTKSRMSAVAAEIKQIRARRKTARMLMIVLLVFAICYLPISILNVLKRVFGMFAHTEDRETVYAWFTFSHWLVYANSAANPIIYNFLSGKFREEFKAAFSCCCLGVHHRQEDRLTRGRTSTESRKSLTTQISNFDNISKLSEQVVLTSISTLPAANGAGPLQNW
row,SMILES,Ki [nM]
1,"C[C@@H]1[C@H]2C[C@@H](Nc3ccc(C(F)(F)F)cn3)[C@H](C2)N1C(=O)c1ncccc1-n1nccn1 (relative stereo) [Example 64, (3-(2H-1,2,3-triazol-2-yl)pyridin-2-yl)((1S*,3R*,4S*,6R*)-3-methyl-6-((5-(trifluoromethyl)pyridin-2-yl)amino)-2-azabicyclo[2.2.1]heptan-2-yl)methanone]",324
2,"C[C@@H]1[C@H]2C[C@@H](Nc3ccc(C(F)(F)F)cn3)[C@H](C2)N1C(=O)c1cccc(F)c1-n1nccn1 (relative stereo) [Example 65, (3-fluoro-2-(2H-1,2,3-triazol-2-yl)phenyl)((1S*,3R*,4S*,6R*)-3-methyl-6-((5-(trifluoromethyl)pyridin-2-yl)amino)-2-azabicyclo[2.2.1]heptan-2-yl)methanone]",183
3,"Cc1cnc(C(=O)N2[C@H](C)[C@H]3C[C@@H](Nc4ccc(C(F)(F)F)cn4)[C@@H]2C3)c(-n2nccn2)c1 (relative stereo) [Example 66, (5-methyl-3-(2H-1,2,3-triazol-2-yl)pyridin-2-yl)((1S*,3R*,4S*,6R*)-3-methyl-6-((5-(trifluoromethyl)pyridin-2-yl)amino)-2-azabicyclo[2.2.1]heptan-2-yl)methanone]",317
4,"Cc1ccc(-n2nccn2)c(C(=O)N2[C@H](C)[C@H]3C[C@@H](Oc4cnc5ccccc5n4)[C@@H]2C3)n1 (relative stereo) [Example 183, (6-methyl-3-(2H-1,2,3-triazol-2-yl)pyridin-2-yl)((1S*,3R*,4R*,6R*)-3-methyl-6-(quinoxalin-2-yloxy)-2-azabicyclo[2.2.1]heptan-2-yl)methanone]",195
5,"Cc1ccc(-n2nccn2)c(C(=O)N2[C@H](C)[C@H]3C[C@@H](Oc4cnc5ccccc5c4)[C@@H]2C3)n1 (relative stereo) [Example 185, (6-methyl-3-(2H-1,2,3-triazol-2-yl)pyridin-2-yl)((1S*,3R*,4R*,6R*)-3-methyl-6-(quinolin-3-yloxy)-2-azabicyclo[2.2.1]heptan-2-yl)methanone]",61
6,"C[C@@H]1[C@H]2C[C@@H](Oc3cnc4cc(F)c(F)cc4n3)[C@H](C2)N1C(=O)c1cccc(F)c1-n1nccn1 (relative stereo) [Example 190, ((1S*,3R*,4R*,6R*)-6-((6,7-difluoroquinoxalin-2-yl)oxy)-3-methyl-2-azabicyclo[2.2.1]heptan-2-yl)(3-fluoro-2-(2H-1,2,3-triazol-2-yl)phenyl)methanone]",123
7,"C[C@@H]1[C@H]2C[C@@H](Oc3cnc4cc(F)c(F)cc4n3)[C@H](C2)N1C(=O)c1ccccc1-n1nccn1 (relative stereo) [Example 191, (2-(2H-1,2,3-triazol-2-yl)phenyl)((1S*,3R*,4R*,6R*)-6-((6,7-difluoroquinoxalin-2-yl)oxy)-3-methyl-2-azabicyclo[2.2.1]heptan-2-yl)methanone]",72
8,"CC1C2CC(Nc3cnc(C(F)(F)F)cn3)C(C2)N1C(=O)c1ccccc1-n1nccn1 (single isomer, unassigned) [Example 5A, (2-(2H-1,2,3-triazol-2-yl)phenyl)((1R*,3R*,4R*,6S*)-3-methyl-6-((5-(trifluoromethyl)pyrazin-2-yl)amino)-2-azabicyclo[2.2.1]heptan-2-yl)methanone]",> 10000
9,"CC1C2CC(Nc3cnc(C(F)(F)F)cn3)C(C2)N1C(=O)c1ccccc1-n1nccn1 (single isomer, unassigned) [Example 5B, (2-(2H-1,2,3-triazol-2-yl)phenyl)((1S*,3S*,4S*,6R*)-3-methyl-6-((5-(trifluoromethyl)pyrazin-2-yl)amino)-2-azabicyclo[2.2.1]heptan-2-yl)methanone]",146
10,"Cc1ccc(-n2nccn2)c(C(=O)N2C(C)C3CC(Nc4cnc(C(F)(F)F)cn4)C2C3)n1 (single isomer, unassigned) [Example 6, (R/S)-(6-methyl-3-(2H-1,2,3-triazol-2-yl)pyridin-2-yl)(3-methyl-6-((5-(trifluoromethyl)pyrazin-2-yl)amino)-2-azabicyclo[2.2.1]heptan-2-yl)methanone]",664
11,"Cc1ccc(-n2nccn2)c(C(=O)N2C(C)C3CC(Nc4cnc(C(F)(F)F)cn4)C2C3)n1 (single isomer, unassigned) [Example 6A, (6-methyl-3-(2H-1,2,3-triazol-2-yl)pyridin-2-yl)((1R*,3R*,4R*,6S*)-3-methyl-6-((5-(trifluoromethyl)pyrazin-2-yl)amino)-2-azabicyclo[2.2.1]heptan-2-yl)methanone]",> 10000
12,"Cc1ccc(-n2nccn2)c(C(=O)N2C(C)C3CC(Nc4cnc(C(F)(F)F)cn4)C2C3)n1 (single isomer, unassigned) [Example 6B, (6-methyl-3-(2H-1,2,3-triazol-2-yl)pyridin-2-yl)((1S*,3S*,4S*,6R*)-3-methyl-6-((5-(trifluoromethyl)pyrazin-2-yl)amino)-2-azabicyclo[2.2.1]heptan-2-yl)methanone]",154
13,"CC1C2CC(Oc3ccc(C(F)(F)F)cn3)C(C2)N1C(=O)c1ccc(F)cc1-c1ncccn1 (single isomer, unassigned) [Example 17A, (4-fluoro-2-(pyrimidin-2-yl)phenyl)((1R*,3S*,4S*,6S*)-3-methyl-6-((5-(trifluoromethyl)pyridin-2-yl)oxy)-2-azabicyclo[2.2.1]heptan-2-yl)methanone]",> 10000
14,"CC1C2CC(Oc3ccc(C(F)(F)F)cn3)C(C2)N1C(=O)c1ccc(F)cc1-c1ncccn1 (single isomer, unassigned) [Example 17B, (4-fluoro-2-(pyrimidin-2-yl)phenyl)((1S*,3R*,4R*,6R*)-3-methyl-6-((5-(trifluoromethyl)pyridin-2-yl)oxy)-2-azabicyclo[2.2.1]heptan-2-yl)methanone]",947
15,"CC1C2CC(Oc3ccc(C(F)(F)F)cn3)C(C2)N1C(=O)c1cc(F)ccc1-c1ncccn1 (single isomer, unassigned) [Example 18A, (5-fluoro-2-(pyrimidin-2-yl)phenyl)((1R*,3S*,4S*,6S*)-3-methyl-6-((5-(trifluoromethyl)pyridin-2-yl)oxy)-2-azabicyclo[2.2.1]heptan-2-yl)methanone]",> 10000
16,"CC1C2CC(Oc3ccc(C(F)(F)F)cn3)C(C2)N1C(=O)c1cc(F)ccc1-c1ncccn1 (single isomer, unassigned) [Example 18B, (5-fluoro-2-(pyrimidin-2-yl)phenyl)((1S*,3R*,4R*,6R*)-3-methyl-6-((5-(trifluoromethyl)pyridin-2-yl)oxy)-2-azabicyclo[2.2.1]heptan-2-yl)methanone]",879
17,"CC1C2CC(Oc3ccc(C(F)(F)F)cn3)C(C2)N1C(=O)c1cccc(F)c1-c1ncc(F)cn1 (single isomer, unassigned) [Example 20A, (3-fluoro-2-(5-fluoropyrimidin-2-yl)phenyl)((1R*,3S*,4S*,6S*)-3-methyl-6-((5-(trifluoromethyl)pyridin-2-yl)oxy)-2-azabicyclo[2.2.1]heptan-2-yl)methanone]",> 10000
18,"CC1C2CC(Oc3ccc(C(F)(F)F)cn3)C(C2)N1C(=O)c1cccc(F)c1-c1ncc(F)cn1 (single isomer, unassigned) [Example 20B, (3-fluoro-2-(5-fluoropyrimidin-2-yl)phenyl)((1S*,3R*,4R*,6R*)-3-methyl-6-((5-(trifluoromethyl)pyridin-2-yl)oxy)-2-azabicyclo[2.2.1]heptan-2-yl)methanone]",1890
19,"CC1C2CC(Nc3cnc(C(F)(F)F)cn3)C(C2)N1C(=O)c1ccccc1-n1nccn1 (single isomer, unassigned) [Example 68A, (2-(2H-1,2,3-triazol-2-yl)phenyl)((1R*,3S*,4R*,6S*)-3-methyl-6-((5-(trifluoromethyl)pyrazin-2-yl)amino)-2-azabicyclo[2.2.1]heptan-2-yl)methanone]",> 10000
